Assay results reported in PubChem BioAssay (NCI).
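At the GI50, growth is halved. TGI marks complete inhibition of growth.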

How the values were obtained:
Test in all cases: inhibition of tumour cell growth, NCI panel, 384-well format
786-0 renal = tested on: 786-0 renal
A498 renal = tested on: A498 renal
A549 NSCLC = tested on: A549 NSCLC
ACHN renal = tested on: ACHN renal
BT-549 breast = tested on: BT-549 breast
CAKI-1 renal = tested on: CAKI-1 renal
CCRF-CEM leukemia = tested on: CCRF-CEM leukemia
COLO 205 colon = tested on: COLO 205 colon
DU-145 prostate = tested on: DU-145 prostate
EKVX NSCLC = tested on: EKVX NSCLC
HCC-2998 colon = tested on: HCC-2998 colon
HCT-116 colon = tested on: HCT-116 colon
HCT-15 colon = tested on: HCT-15 colon
HL-60(TB) leukemia = tested on: HL-60(TB) leukemia
HOP-62 NSCLC = tested on: HOP-62 NSCLC
HOP-92 NSCLC = tested on: HOP-92 NSCLC
HT29 colon = tested on: HT29 colon
IGROV1 ovarian = tested on: IGROV1 ovarian
K-562 leukemia = tested on: K-562 leukemia
KM12 colon = tested on: KM12 colon
MALME-3M melanoma = tested on: MALME-3M melanoma
MCF7 breast = tested on: MCF7 breast
MDA-MB-231 breast = tested on: MDA-MB-231 breast
MDA-MB-435 melanoma = tested on: MDA-MB-435 melanoma
MDA-MB-468 breast = tested on: MDA-MB-468 breast
MOLT-4 leukemia = tested on: MOLT-4 leukemia
NCI-H226 lung = tested on: NCI-H226 lung
NCI-H23 lung = tested on: NCI-H23 lung
NCI-H322M lung = tested on: NCI-H322M lung
NCI-H460 NSCLC = tested on: NCI-H460 NSCLC
NCI-H522 lung = tested on: NCI-H522 lung
NCI/ADR-RES ovarian = tested on: NCI/ADR-RES ovarian
OVCAR-3 ovarian = tested on: OVCAR-3 ovarian
OVCAR-4 ovarian = tested on: OVCAR-4 ovarian
OVCAR-5 ovarian = tested on: OVCAR-5 ovarian
OVCAR-8 ovarian = tested on: OVCAR-8 ovarian
PC-3 prostate = tested on: PC-3 prostate
RPMI-8226 leukemia = tested on: RPMI-8226 leukemia
RXF 393 renal = tested on: RXF 393 renal
SF-268 CNS = tested on: SF-268 CNS
SF-295 CNS = tested on: SF-295 CNS
SF-539 CNS = tested on: SF-539 CNS
SK-MEL-28 melanoma = tested on: SK-MEL-28 melanoma
SK-MEL-5 melanoma = tested on: SK-MEL-5 melanoma
SK-OV-3 ovarian = tested on: SK-OV-3 ovarian
SN12C renal = tested on: SN12C renal
SNB-19 CNS = tested on: SNB-19 CNS
SNB-75 CNS = tested on: SNB-75 CNS
SR leukemia = tested on: SR leukemia
SW-620 colon = tested on: SW-620 colon
T-47D breast = tested on: T-47D breast
TK-10 renal = tested on: TK-10 renal
U251 glioblastoma = tested on: U251 glioblastoma
UACC-257 melanoma = tested on: UACC-257 melanoma
UACC-62 melanoma = tested on: UACC-62 melanoma
UO-31 renal = tested on: UO-31 renal

`O=C(Cc1cccc(OC(F)(F)F)c1)Nc1ccc(CCCCc2nnc(NC(=O)Cc3ccccn3)s2)nn1` was tested, and the GI50 ([…]-0 renal) was 0.0294 µM, the TGI (786-0 renal) was 0.248 µM and the GI50 (A498 renal) was 0.0303 µM. It also gave a TGI (A498 renal) of 0.16 µM, a GI50 (A549 NSCLC) of 0.0172 µM and a TGI (A549 NSCLC) of 0.061 µM. It also gave a GI50 (ACHN renal) of 2.52 µM, a TGI (ACHN renal) greater than 71 µM and a GI50 (BT-549 breast) of 2.26 µM. It also gave a TGI (BT-549 breast) of 11.2 µM, a GI50 (CAKI-1 renal) of 0.193 µM and a TGI (CAKI-1 renal) of 18 µM. It also gave a GI50 (CCRF-CEM leukemia) of 0.375 µM, a TGI (CCRF-CEM leukemia) greater than 100 µM and a GI50 (COLO 205 colon) of 36.2 µM. The TGI (COLO 205 colon) was greater than 100 µM, the GI50 (DU-145 prostate) was 31.4 µM and the TGI (DU-145 prostate) was greater than 100 µM. It also gave a GI50 (EKVX NSCLC) of 2.74 µM, a TGI (EKVX NSCLC) greater than 100 µM and a TGI (HCC-2998 colon) greater than 100 µM. It also gave a GI50 (HCT-116 colon) of 0.162 µM, a TGI (HCT-116 colon) greater than 33.4 µM and a GI50 (HCT-15 colon) greater than 72.6 µM. It also gave a TGI (HCT-15 colon) greater than 100 µM, a GI50 (HL-60(TB) leukemia) of 0.687 µM and a TGI (HL-60(TB) leukemia) greater than 100 µM. It also gave a GI50 (HOP-62 NSCLC) of 0.0537 µM, a TGI (HOP-62 NSCLC) of 0.335 µM and a GI50 (HOP-92 NSCLC) of 6.95 µM. For the same molecule, the TGI (HOP-92 NSCLC) was 32.4 µM, the GI50 (HT29 colon) was greater than 100 µM and the TGI (HT29 colon) was greater than 100 µM. For the same molecule, the GI50 (IGROV1 ovarian) was greater than 31.6 µM, the TGI (IGROV1 ovarian) was greater than 31.6 µM and the GI50 (K-562 leukemia) was 8.95 µM. For the same molecule, the TGI (K-562 leukemia) was greater than 100 µM, the GI50 (KM12 colon) was 0.068 µM and the TGI (KM12 colon) was greater than 100 µM. It also gave a GI50 (MALME-3M melanoma) of 23.1 µM, a TGI (MALME-3M melanoma) greater than 56.7 µM and a GI50 (MCF7 breast) of 6.1 µM. It also gave a TGI (MCF7 breast) greater than 100 µM, a GI50 (MDA-MB-231 breast) of 0.0339 µM and a TGI (MDA-MB-231 breast) of 18.8 µM. The GI50 (MDA-MB-435 melanoma) was greater than 100 µM, the TGI (MDA-MB-435 melanoma) was greater than 100 µM and the GI50 (MDA-MB-468 breast) was 8.47 µM. For the same molecule, the TGI (MDA-MB-468 breast) was 93.3 µM, the GI50 (MOLT-4 leukemia) was 2.04 µM and the TGI (MOLT-4 leukemia) was greater than 100 µM. It also gave a GI50 (NCI-H226 lung) of 0.282 µM, a TGI (NCI-H226 lung) of 0.983 µM and a GI50 (NCI-H23 lung) of 4.78 µM. For the same molecule, the TGI (NCI-H23 lung) was 39.6 µM, the GI50 (NCI-H322M lung) was 0.0199 µM and the TGI (NCI-H322M lung) was 0.0551 µM. The GI50 (NCI-H460 NSCLC) was 0.165 µM, the TGI (NCI-H460 NSCLC) was 19.2 µM and the GI50 (NCI-H522 lung) was 0.075 µM. The TGI (NCI-H522 lung) was 4.05 µM, the GI50 (NCI/ADR-RES ovarian) was greater than 100 µM and the TGI (NCI/ADR-RES ovarian) was greater than 100 µM. It also gave a GI50 (OVCAR-3 ovarian) greater than 21.4 µM, a TGI (OVCAR-3 ovarian) greater than 100 µM and a GI50 (OVCAR-4 ovarian) of 9.65 µM. It also gave a TGI (OVCAR-4 ovarian) greater than 31.1 µM, a GI50 (OVCAR-5 ovarian) of 0.362 µM and a TGI (OVCAR-5 ovarian) greater than 100 µM. For the same molecule, the GI50 (OVCAR-8 ovarian) was 1.22 µM, the TGI (OVCAR-8 ovarian) was 17.3 µM and the GI50 (PC-3 prostate) was greater than 100 µM. It also gave a TGI (PC-3 prostate) greater than 100 µM, a GI50 (RPMI-8226 leukemia) of 0.0377 µM and a TGI (RPMI-8226 leukemia) of 0.175 µM. The GI50 (RXF 393 renal) was 0.0372 µM, the TGI (RXF 393 renal) was 0.141 µM and the GI50 (SF-268 CNS) was 0.201 µM. For the same molecule, the TGI (SF-268 CNS) was 1.98 µM, the GI50 (SF-295 CNS) was 5.17 µM and the TGI (SF-295 CNS) was greater than 23.1 µM. It also gave a GI50 (SF-539 CNS) of 0.224 µM, a TGI (SF-539 CNS) of 14.4 µM and a GI50 (SK-MEL-28 melanoma) of 30.8 µM. For the same molecule, the TGI (SK-MEL-28 melanoma) was greater than 87.1 µM, the GI50 (SK-MEL-5 melanoma) was 0.891 µM and the TGI (SK-MEL-5 melanoma) was 17.2 µM. For the same molecule, the GI50 (SK-OV-3 ovarian) was 0.0809 µM, the TGI (SK-OV-3 ovarian) was 25.2 µM and the GI50 (SN12C renal) was 0.0217 µM. The GI50 (SNB-19 CNS) was 39.4 µM, the TGI (SNB-19 CNS) was 97.2 µM and the GI50 (SNB-75 CNS) was 18.5 µM. It also gave a TGI (SNB-75 CNS) of 55.9 µM, a GI50 (SR leukemia) of 0.439 µM and a TGI (SR leukemia) of 18.7 µM. It also gave a GI50 (SW-620 colon) greater than 100 µM, a TGI (SW-620 colon) greater than 100 µM and a GI50 (T-47D breast) of 1.87 µM. The TGI (T-47D breast) was 9.66 µM, the GI50 (TK-10 renal) was 0.637 µM and the TGI (TK-10 renal) was 18.3 µM. For the same molecule, the GI50 (U251 glioblastoma) was 0.0338 µM, the TGI (U251 glioblastoma) was 11.8 µM and the GI50 (UACC-257 melanoma) was 14.4 µM. The TGI (UACC-257 melanoma) was 48 µM, the GI50 (UACC-62 melanoma) was 4.76 µM and the TGI (UACC-62 melanoma) was greater than 33.5 µM. For the same molecule, the GI50 (UO-31 renal) was 5.66 µM.
